Numbered stars: 1 amine (or outer) side, 2 acyl side, 3 side chain; on linkers, the order of the positions; unused ones are H or OH. Bridge positions count the residues as written; N and C are the ends. Side chains are listed from the residue outwards. Peptide text beside a SMILES is read from it. * marks the point of attachment. Argψ(CH2NH)TyrNH2 = N=C(N)NCCC[C@@H](CN[C@@H](Cc1ccc(O)cc1)C(N)=O)N*; C18 diacid = O=C(O)CCCCCCCCCCCCCCCCC(=O)*; γGlu = O=C(O)[C@H](CCC(=O)[*:2])N[*:1]; AEEA = NCCOCCOCC(=O)O
Molecular target: T1, human NPY2R (Homo sapiens, UniProt P49146)
T1 construct: expressed in transfected cells; host or cells: HEK cells
T1 sequence (P49146 whole entry): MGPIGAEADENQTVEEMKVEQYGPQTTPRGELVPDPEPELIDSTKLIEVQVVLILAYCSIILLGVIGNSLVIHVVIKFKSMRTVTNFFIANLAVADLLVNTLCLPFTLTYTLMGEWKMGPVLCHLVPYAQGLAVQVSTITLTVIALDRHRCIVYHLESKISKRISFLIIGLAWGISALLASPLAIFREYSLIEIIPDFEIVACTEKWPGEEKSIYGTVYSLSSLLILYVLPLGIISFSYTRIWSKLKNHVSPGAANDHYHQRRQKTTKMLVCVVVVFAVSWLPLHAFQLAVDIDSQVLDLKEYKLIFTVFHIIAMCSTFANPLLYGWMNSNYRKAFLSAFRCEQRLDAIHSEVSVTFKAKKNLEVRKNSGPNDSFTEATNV
Assay: Human NPY2R cAMP in vitro potency assay (hY2 assay), inhibition of forskolin-induced cAMP, LANCE FRET
Type: cell-based
Description: The method used to test the potency of PYY analogs in vitro was a cell based assay designed to measure inhibition of forskolin-induced cAMP produced by adenylate cyclase through modulation of the human NPY2R Gi-protein coupled receptor.
Cells were thawed from cryopreservation and added to 15 ml of cell media (DMEM/high glucose (Cellgro), 10% FBS (Hyclone), 1% Pen/Strep (Life Technologies), 1% L-Glutamine (Thermo Scientific), 1% Na Pyruvate (Thermo Scientific)). […] Supernatants in the assay plate were decanted. Dilutions of PYY analogs and controls were prepared in 1×HBSS (Cellgro), 5 mM HEPES (Cellgro), 0.1% BSA (PerkinElmer) and 0.5 mM 3-isobutyl-1-methylxanthine (Sigma), and 6 μL/well of each sample were added to designated wells. […] All samples were measured in triplicate. Data were analyzed using the Crucible in-house data analysis software, designed by Eudean Shaw. The unknown cAMP concentrations within each well were interpolated from the reference standards of known cAMP concentrations included within each plate.

[1] = Y2R EC50 (nM) SEQ ID NO: 2-39, human NPY2R transfected HEK cells, NTSC-PYY compound

Row | SMILES | EC50 (Y2R EC50 (nM) SEQ ID NO: 2-39) | EC50 [1]
1 | CC[C@H](C)[C@@H]1NC(=O)CCNC(=O)CSC[C@@H](C(=O)N[C@H](C(=O)N[C@H](C(=O)N[C@@H](CCCNC(=N)N)C(=O)N[C@@H](CCC(N)=O)C(=O)N[C@@H](CCCNC(=N)N)CN[C@@H](Cc2ccc(O)cc2)C(N)=O)[C@@H](C)O)C(C)C)NC(=O)[C@H](CC(N)=O)NC(=O)[C@H](CC(C)C)NC(=O)[C@H](Cc2ccc(O)cc2)NC(=O)[C@H](Cc2c[nH]cn2)NC(=O)[C@H](CCCNC(=N)N)NC(=O)[C@H](CC(C)C)NC(=O)[C@H](CO)NC(=O)[C@H](C)NC(=O)[C@H](Cc2ccc(O)cc2)NC(=O)[C@H](Cc2ccc(O)cc2)NC(=O)[C@H](CCCNC(=N)N)NC(=O)[C@H](CC(N)=O)NC(=O)[C@H](CC(C)C)NC(=O)[C@H](CCC(=O)O)NC(=O)[C@H](CCC(=O)O)NC(=O)[C@@H]2CCCN2C(=O)[C@H](CO)NC(=O)[C@H](C)NC(=O)[C@H](CCCCNC(=O)COCCOCCNC(=O)COCCOCCNC(=O)CC[C@H](NC(=O)CCCCCCCCCCCCCCCCC(=O)O)C(=O)O)NC(=O)[C@H](CCC(=O)O)NC(=O)CNC(=O)[C@@H]2CCCN2C(=O)[C@H](C)NC(=O)[C@H](CCC(=O)O)NC(=O)[C@@H]2CCCN2C(=O)[C@H](CCCCN)NC1=O [SEQ ID NO: 68] | 0.27 nM | –
2 | CCCCCCCCCCCCCCCC(=O)N[C@@H](CCC(=O)NCCCC[C@@H]1NC(=O)[C@H](CC(N)=O)NC(=O)[C@H](CC(C)C)NC(=O)[C@H](Cc2ccc(O)cc2)NC(=O)[C@H](C)NC(=O)[C@H](CCCNC(=N)N)NC(=O)[C@H](CC(C)C)NC(=O)[C@H](CO)NC(=O)[C@H](C)NC(=O)[C@H](Cc2ccc(O)cc2)NC(=O)[C@H](Cc2ccc(O)cc2)NC(=O)[C@H](CCCNC(=N)N)NC(=O)[C@H](CC(N)=O)NC(=O)[C@H](CC(C)C)NC(=O)[C@H](CCC(=O)O)NC(=O)[C@H](CCC(=O)O)NC(=O)[C@@H]2CCCN2C(=O)[C@H](CO)NC(=O)[C@H](C)NC(=O)[C@H](CC(=O)O)NC(=O)[C@H](CCC(=O)O)NC(=O)CNC(=O)[C@@H]2CCCN2C(=O)[C@H](C)NC(=O)[C@H](CCC(=O)O)NC(=O)[C@@H]2CCCN2C(=O)[C@H](C)NC(=O)[C@H]([C@@H](C)CC)NC(=O)c2cccc(c2)CSCC[C@@H](C(=O)N[C@H](C(=O)N[C@@H](CCCNC(=N)N)C(=O)N[C@@H](CCC(N)=O)C(=O)N[C@@H](CCCNC(=N)N)C(=O)N[C@@H](Cc2ccc(O)cc2)C(N)=O)[C@@H](C)O)NC1=O)C(=O)O [SEQ ID NO: 21] | – | 0.49 nM
3 | CC[C@H](C)[C@@H]1NC(=O)CNC(=O)CC[C@@H](C(=O)N[C@H](C(=O)N[C@H](C(=O)N[C@@H](CCCNC(=N)N)C(=O)N[C@@H](CCC(N)=O)C(=O)N[C@@H](CCCNC(=N)N)CN[C@@H](Cc2ccc(O)cc2)C(N)=O)[C@@H](C)O)C(C)C)NC(=O)[C@H](CC(N)=O)NC(=O)[C@H](CC(C)C)NC(=O)[C@H](Cc2ccc(O)cc2)NC(=O)[C@H](Cc2c[nH]cn2)NC(=O)[C@H](CCCNC(=N)N)NC(=O)[C@H](CC(C)C)NC(=O)[C@H](CO)NC(=O)[C@H](C)NC(=O)[C@H](Cc2ccc(O)cc2)NC(=O)[C@H](Cc2ccc(O)cc2)NC(=O)[C@H](CCCNC(=N)N)NC(=O)[C@H](CC(N)=O)NC(=O)[C@H](CC(C)C)NC(=O)[C@H](CCC(=O)O)NC(=O)[C@H](CCC(=O)O)NC(=O)[C@@H]2CCCN2C(=O)[C@H](CO)NC(=O)[C@H](C)NC(=O)[C@H](CCCCN)NC(=O)[C@H](CCC(=O)O)NC(=O)CNC(=O)[C@@H]2CCCN2C(=O)[C@H](C)NC(=O)[C@H](CCC(=O)O)NC(=O)[C@@H]2CCCN2C(=O)[C@H](CO)NC1=O [SEQ ID NO: 70, [cyclo-(G2-E30), S4, K11, psi-(R35,Y36)]-PYY2-36] (HELM PEPTIDE1{G.I.S.P.E.A.P.G.E.K.A.S.P.E.E.L.N.R.Y.Y.A.S.L.R.H.Y.L.N.E.V.T.R.Q.[N=C(N)NCCC[C@@H](CN[C@@H](Cc1ccc(O)cc1)C(N)=O)N[*:1]]}$PEPTIDE1,PEPTIDE1,1:R1-29:R3$$$V2.0) | 0.02 nM | –
4 | CC[C@H](C)[C@@H]1NC(=O)CNC(=O)CC[C@@H](C(=O)N[C@H](C(=O)N[C@H](C(=O)N[C@@H](CCCNC(=N)N)C(=O)N[C@@H](CCC(N)=O)C(=O)N[C@@H](CCCNC(=N)N)CN[C@@H](Cc2ccc(O)cc2)C(N)=O)[C@@H](C)O)C(C)C)NC(=O)[C@H](CC(N)=O)NC(=O)[C@H](CC(C)C)NC(=O)[C@H](Cc2ccc(O)cc2)NC(=O)[C@H](Cc2c[nH]cn2)NC(=O)[C@H](CCCNC(=N)N)NC(=O)[C@H](CC(C)C)NC(=O)[C@H](CO)NC(=O)[C@H](C)NC(=O)[C@H](Cc2ccc(O)cc2)NC(=O)[C@H](Cc2ccc(O)cc2)NC(=O)[C@H](CCCNC(=N)N)NC(=O)[C@H](CC(N)=O)NC(=O)[C@H](CC(C)C)NC(=O)[C@H](CCC(=O)O)NC(=O)[C@H](CCC(=O)O)NC(=O)[C@@H]2CCCN2C(=O)[C@H](CO)NC(=O)[C@H](C)NC(=O)[C@H](CCCCNC(=O)COCCOCCNC(=O)COCCOCCNC(=O)CC[C@H](NC(=O)CCCCCCCCCCCCCCCCC(=O)O)C(=O)O)NC(=O)[C@H](CCC(=O)O)NC(=O)CNC(=O)[C@@H]2CCCN2C(=O)[C@H](C)NC(=O)[C@H](CCC(=O)O)NC(=O)[C@@H]2CCCN2C(=O)[C@H](CO)NC1=O [SEQ ID NO: 72] (GISPEAPGEK([AEEA-AEEA-γGlu-C18 diacid])ASPEELNRYYASLRHYLNEVTRQ-{Argψ(CH2NH)TyrNH2}; lactam N-29) | – | 1.75 nM
5 | CCCCCCCCCCCCCCCC(=O)N[C@@H](CCC(=O)NCCCC[C@@H]1NC(=O)[C@H](CC(N)=O)NC(=O)[C@H](CC(C)C)NC(=O)[C@H](Cc2ccc(O)cc2)NC(=O)[C@H](C)NC(=O)[C@H](CCCNC(=N)N)NC(=O)[C@H](CC(C)C)NC(=O)[C@H](CO)NC(=O)[C@H](C)NC(=O)[C@H](Cc2ccc(O)cc2)NC(=O)[C@H](Cc2ccc(O)cc2)NC(=O)[C@H](CCCNC(=N)N)NC(=O)[C@H](CC(N)=O)NC(=O)[C@H](CC(C)C)NC(=O)[C@H](CCC(=O)O)NC(=O)[C@H](CCC(=O)O)NC(=O)[C@@H]2CCCN2C(=O)[C@H](CO)NC(=O)[C@H](C)NC(=O)[C@H](CC(=O)O)NC(=O)[C@H](CCC(=O)O)NC(=O)CNC(=O)[C@@H]2CCCN2C(=O)[C@H](C)NC(=O)[C@H](CCC(=O)O)NC(=O)[C@@H]2CCCN2C(=O)[C@H](CCC(=O)O)NC(=O)[C@H]([C@@H](C)CC)NC(=O)c2cccc(c2)CSCC[C@@H](C(=O)N[C@H](C(=O)N[C@@H](CCCNC(=N)N)C(=O)N[C@@H](CCC(N)=O)C(=O)N[C@@H](CCCNC(=N)N)C(=O)N[C@@H](Cc2ccc(O)cc2)C(N)=O)[C@@H](C)O)NC1=O)C(=O)O [SEQ ID NO: 22] | 4.4 nM | –
